Experimental data as given in US20060193853A1, “Combinations of growth-and hormone-regulating factors for the treatment of neoplasia” (priority 2002, published 2006).

Tested on: tumor cell line Dunning R3327-G
Test: Tumor reduction in Copenhagen rats implanted with tumor cell line Dunning R3327-G (tumor weight at sacrifice)
Assay type: in vivo
Settings: three months following the tumor line implant
Experimental: Tumor cell line Dunning R3327-G was implanted into 9-12 weeks old Copenhagen rats (with approximately 100 g of body weight each), which were subjected to different treatments with 2×10^6 cell density per animal in implant medium (RPMI 1640, serum-free in 0.5 ml), on the laxed area of the flanks. One hundred percent attachment efficiency was accomplished in the animals after 90 days.
Eight groups of ten animals each one were formed for the experiment, with Copenhagen rats as described before. […]
DES treatment was made on and off, three times a week at a rate of 1 mg/kg/day, as long as the experiment lasted; and it started once the cells were inoculated. […] (1) The expected effect (Etheoretical) in the case of double combination formulations can be calculated in case either effect is not mutually excluding (Caridad W., Guerra Bustillo, Ernesto Menendez Acuna, Rolando Barrera Morena, Esteban Egana Morales. “Estadistica”, Editorial Pueblo y Educacion, 1989), according to: Etheoretical=ET1+ET2−(ET1*ET2). […]

Structure (SMILES): CC/C(=C(/CC)c1ccc(O)cc1)c1ccc(O)cc1 [DES, dietilestilbestrol]
- Treatment effect. Etreatment=1-(Ptreatment/Pplacebo) (relative to placebo mean tumor weight): 0.597
- Tumor weight (g) (Mean of ten animals) (tumor dried and weighed): 12.66 g
